Test results from patent publication US20170267727A1, “Conjugates of pH Low Insertion Peptide and Monomethyl Auristatins in the Treatment of Solid Tumors” (Lehigh University, priority 2016, published 2017).
Positions of bridges follow the written chain, without caps; N, C: chain ends. Non-standard residues stand in square brackets, D forms with d. Chains are numbered I, II in the order given. *: point of attachment. Dolaproine = CO[C@@H]([C@@H]1CCCN1)[C@@H](C)C(=O)O; Dil = CC[C@H](C)[C@H](NC)[C@@H](CC(=O)O)OC; X1 = C[C@@H](N*)[C@@H](O)c1ccccc1; NMeV = CN[C@H](C(=O)O)C(C)C; Mpa = O=C(O)CCS

What was measured:
[1] = Construct Stability HPLC in Mouse Serum; format: in vitro ADME; settings: 37° C., 48 h
Procedure: FIG. 8A, FIG. 8B, and FIG. 8C show Purity check and Chemical stability of pHLIP-MMAE conjugates. (FIG. 8A) and (FIG. 8B): HPLC traces of pHLIP(WT)-MMAE and pHLIP(D25E)-MMAE, respectively: Purified conjugates (upper panels), 10 μM of conjugate in cell media (middle panels) and after incubation in cell media for 2 h at pH 5.0 and 37° C. (lower panels). The small peak observed around 27 min in (FIG. 8B) upper panel corresponds to some residual free pHLIP (<15%), which is known to not be cytotoxic (FIG. 7). (FIG. 8C) HPLC traces of Alexa750-pHLIP(WT)-MMAE: Purified conjugate (upper panel), 10 μM Alexa 750-pHLIP(WT)-MMAE before (upper panel) and after 48 h incubation in mouse serum at 37° C. (lower panel). Purity checks and chemical stability runs were performed on different column and with different flow rate, explaining the difference in retention times and peak broadness (see Experimental Section). […]
Peptide solutions were incubated at either pH 7.4 or pH 5.0 (37° C. and 5% CO2) and 100 μL aliquots were monitored via RP-HPLC at various time points (Agilent Eclipse XDB-C18 […] 9.4×250 mm; flow rate 2 mL/min; phase A: water 0.01% TFA; phase B: acetonitrile 0.01% TFA; gradient 45 min from 95/5 A/B to 0/100 A/B). […] The stability of Alexa750-pHLIP(WT)-MMAE was determined in mouse serum by solubilizing the construct to incubating it at 37° C. and monitoring via RP-HPLC at specific time points.

[2] = system: MDA-MB-231 cells; assay: Anti-proliferation Assay (2 hours treatment at pH 7.4 or 5.0, 72 hours growth, MTT); settings: for cell killing (printed 49% versus 100%): 1.25 μM treatment
Procedure: (§1) FIG. 3A, FIG. 3C and FIG. 3E show HeLa cells treated with pHLIP(WT)-MMAE, pHLIP(D25E)-MMAE, and MMAE(linker), respectively. FIG. 3B, FIG. 3D and FIG. 3F show MDA-MB-231 cells treated with pHLIP(WT)-MMAE, pHLIP(D25E)-MMAE, and MMAE(linker), respectively. Black columns represent cells treated at pH 7.4 and cells treated at low pH are shown in grey. For each condition, 3,000 cells/well (96-well plate) were seeded, allowed to adhere overnight, treated for 2 hours, washed once with media and grown for 72 hour in complete medium at physiologic pH. Cell viability was assessed with the MTT assay. All measurements were normalized to the media control (0 μM, pH 7.4), as 100% cell viability. Results are shown as mean±SD (n=6-9).
(§2) Anti-proliferation Assay. HeLa and MDA-MB-231 cells were seeded in 96-well plates at a density of 3,000 cells/well and incubated overnight. Before treatment, construct aliquots were solubilized in an appropriate volume of DMEM without FBS (pH 7.4)—so that upon pH adjustment the desired treatment concentration is obtained—and gently sonicated for 30-60 seconds using a bath sonicator (Branson Ultrasonics). After removal of cell media, this treatment solution was added to each well and incubated at 37° C. for 5-10 minutes. The pH was then adjusted to the desired value using a pre-established volume of DMEM, pH 2.0 buffered with citric acid (final volume=50 μL) and the plate was incubated at 37° C. for 2 hours. After treatment, the media was removed, cells were washed once with 100 μL of complete DMEM, and 100 μL of complete medium was added to each well before returning the plate to the incubator. Treatment solutions were collected and their pH values measured using a micro-combination pH probe (Microelectrodes, Inc.). […] Cell viability was determined after 72 hours using the colorimetric MTT assay. Briefly, 10 μL of a 5 mg/mL MTT stock solution was added to the treated cells and incubated for 2 hours at 37° C. The resulting formazan crystals were solubilized in 200 μL DMSO and the absorbance measured at 580 nm using an Infinite 200 PRO microplate reader (Tecan). Cell viability was calculated against control cells treated with media at physiologic pH.
(§3) Inhibition of Cell Proliferation. The ability of pHLIP to move MMAE across the cell membrane and to inhibit cancer cell proliferation in concentration and pH-dependent manners was evaluated. Cell treatments for both pHLIP(WT)-MMAE and pHLIP(D25E)-MMAE constructs were carried out with conjugate concentrations ranging from 1.25 to 10 μM at either pH 7.4 or 5.0. After a 2-hour incubation at 37° C., the treatment media was replaced by fresh media, and cells were grown for an additional 72 hours at normal pH before assessing cell viability using the MTT assay. […] This treatment protocol is quite stringent when compared to the typical multi-days exposure treatments used with free drugs (FIG. 6A and FIG. 6B).

[3] = system: HeLa cells; assay: as above
Procedure: as §1
HeLa cells treated with pHLIP(WT)-MMAF (FIG. 9A), pHLIP(D25E)-MMAF (FIG. 9B), pHLIP(P20G)-MMAF (FIG. 9C), and pHLIP(R11Q)-MMAF (FIG. 9D). Circles represent cells treated at pH 7.4 and squares represent cells treated at pH 5.0. Results are shown as the mean±SEM (n=6-9).
as §2, §3

Substance | stability in serum [1] | cell killing (printed 49% versus 100%) [2] [%] | inhibition of proliferation ([2]; normal pH) | effect on cell proliferation ([3]; pH 7.4, same conditions (1.25 to 10 μM)) | cytotoxicity ([3]; physiological pH, 5 μM)
I: H-AAEQNPIYWARYADWLFTTPLLLLDLALLVDADEGTCG-OH / II: [Mpa][NMeV]V[Dil][Dolaproine]-X1 (disulfide I:37-II:1) [pHLIP(WT)-MMAE] | stable in serum | 100 | no significant inhibition of proliferation | no or a moderate effect on cell proliferation | only marginal cytotoxicity
I: H-AAEQNPIYWARYADWLFTTPLLLLELALLVDADEGTCG-NH2 / II: [Mpa][NMeV]V[Dil][Dolaproine]-X1 (disulfide I:37-II:1) [pHLIP(D25E)-MMAE] | – | 49 | – | – | –
